Test results taken from publication PMC11549390, “Activity, structure, and diversity of Type II proline-rich antimicrobial peptides from insects” (EMBO Reports, 2024).
Read-outs that look alike come from different tables or passages of the source. No end group written: not given here.

Legend:
[1] = system: E. coli strain BL21 cells transformed with the pRXG(UGA) plasmid; assay: Stop codon readthrough assay (RFP-UGA-GFP reporter, drop-diffusion); type: cell-based, Escherichia coli; settings: subinhibitory concentrations, M9 agar, 2 µL of 2 mM peptide, 37 °C 16 h, three independent experiments
Description: Figure 4 Newly identified PrAMPs cause stop codon readthrough in bacterial cells. Top: In-frame fused genes encoding the reporter proteins RFP and GFP in the pRXG plasmid (Monk et al, [2017]) are separated by an UGA stop codon. […] Api and the modified Api137 (Berthold et al, [2013]) were spotted for comparison. […] Shown are representative plates from three independent experiments.
Stop codon readthrough activity of PrAMPs was determined as previously described (Mangano et al, [2023]). Briefly, E. coli strain BL21 cells transformed with the pRXG(UGA) plasmid (Monk et al, [2017]) were plated as described above for the drop-diffusion test, except that the bacterial lawn was formed on M9 medium/agar plates supplemented with 50 µg/ml of Kan and 0.2% glucose. Peptide solutions (2 µL of 2 mM stocks) were applied. The plates were incubated at 37 °C for 16 h and imaged in Cy2 (GFP) or Cy3 (RFP) channels using the BioRad ChemiDoc Touch imaging system. The images were processed using Image Lab software (BioRad).

K. pneumoniae AR-0112 = type: cell-based, Klebsiella pneumoniae
Description: (§1) The minimal inhibitory concentration (MIC) test for the E. coli laboratory strain BL21 and the K. pneumoniae multi-drug-resistant clinical strain AR-0112 (CDC and FDA Antibiotic Resistance Isolate Bank) was performed using the broth microdilution method, adapted from a previously described procedure (Wiegand et al, [2008]). The MIC tests were conducted either in 33% Tryptic Soy Broth (TSB) (Berthold et al, [2013]), or in RPMI/Serum (prepared by combining Roswell Park Memorial Institute medium 1640, Mueller Hinton Broth, and fetal bovine serum in the proportion 100:5:20, v/v/v) (Belanger et al, [2020]).

E. coli BL21 = type: cell-based, Escherichia coli
Description: as §1

| Molecule | MIC (K. pneumoniae AR-0112; AR-0112) [µM] | MIC (E. coli BL21; BL21) [µM] | other results |
| --- | --- | --- | --- |
| O=C(N[C@H](CO)[C@H](O)c1ccc([N+](=O)[O-])cc1)C(Cl)Cl [chloramphenicol] | – | – | Induction of stop codon readthrough (GFP halo) [1]: does not induce stop codon readthrough |
| AHKPVYVPPPRPPHPRL [Nme2] | 2 | – | – |
| ALNRPVYVPPPRPPHPRL [Mge1] | 1 | – | – |
| GKPNKPRPAPIKPRPPHPRL [Pdi2] | – | 0.25 | – |
| GNRPNIPTYIPRPRPPHPRL [Fva1] | – | – | MIC (E. coli BL21; E. coli BL21, 33% TSB, broth microdilution, performed in triplicate): 0.125 µM; MIC (E. coli BL21; E. coli BL21, RPMI/Serum (RPMI 1640:Mueller Hinton Broth:fetal bovine serum 100:5:20), broth microdilution, performed in triplicate): 0.25 µM; MIC (K. pneumoniae AR-0112; K. pneumoniae AR-0112 (multi-drug-resistant clinical strain), 33% TSB, broth microdilution, performed in triplicate): 1 µM; MIC (K. pneumoniae AR-0112; K. pneumoniae AR-0112, RPMI/Serum (RPMI 1640:Mueller Hinton Broth:fetal bovine serum 100:5:20), broth microdilution, performed in triplicate): 16 µM |
| GSKPVRPPPPIRPRPPHPRL [Btr1] | – | 0.25 | – |
| GSRLMYLPPPPCSPYLHF [Baf1] | – | >64 | – |
| NRPTYVPPPRPPHPRL [Ssp1] | 2 | – | – |
| SNKPRPQQVPPRPPHPRL [Vma1] | 2 | – | – |
| SNRPVYIPPPRSPHPRL [Bvo1] | – | >64 | – |
